Key:
[1] = tested on: C57BL6 mice fed High Fat Diet; assay: Food consumption in High Fat Diet fed mice; format: in vivo; conditions: Dose 11 μM/kg intraperitoneally, 7-15 days
Experimental: (§1) C57BL6 mice (14-18 weeks age), fed for 8-12 weeks with High Fat Diet (45% kcal fat) were used for the study. The mice were placed in individual housing for one week. The mice were then kept in oxymax cages for 48 h for acclimatization. Basal recordings of oxygen consumption and carbon dioxide production for each mouse were recorded with indirect open circuit calorimeter (Oxymax, Columbus Instruments, USA (Ling fu et al., Endocrinology (2004); 145 (6); 2591-3). On the basis of body weight and basal oxygen consumption, mice were randomized and divided into two groups. • I) Vehicle treated group • II) Test compound treated group
(§2) The mice were treated with vehicle and test compounds intraperitoneally for 7-15 days. On the day 8, Oxygen consumption was measured for individual mouse 30 min after the drug treatment and % change with respect to vehicle is calculated.
(§3) During the experiment food consumption was monitored daily. At the end of the experiment the animals were scarified and the heart weights were recorded.

[2] = tested on: C57BL6 mice fed High Fat Diet; assay: Heart weight in High Fat Diet fed mice; format: in vivo; conditions: Dose 11 μM/kg intraperitoneally, end of experiment
Experimental: as §1, §2, §3

[3] = tested on: C57BL6 mice fed High Fat Diet; assay: Oxygen consumption (Oxymax indirect calorimeter) in High Fat Diet fed mice; format: in vivo; conditions: Dose 11 μM/kg intraperitoneally, day 8, % change vs vehicle; for change in vivo at 11 µM, 11 µmol/kg: Mus musculus, ip, 192 h, read-out: increase in O2 cons
Experimental: as §1, §2

THR α1 = target: T1, THR α1 (Homo sapiens, UniProt P10827); assay: Thyroid α1 transactivation (TRE reporter, luciferase) in COS7 cells; format: cell-based; conditions: Conc. 20 uM, 24 hours, vs vehicle control
T1 construct: GAL4 (plasmid pGAL4); expressed in transfected cells; host or cells: COS7
T1 sequence (P10827 1-410 isoform P10827-2): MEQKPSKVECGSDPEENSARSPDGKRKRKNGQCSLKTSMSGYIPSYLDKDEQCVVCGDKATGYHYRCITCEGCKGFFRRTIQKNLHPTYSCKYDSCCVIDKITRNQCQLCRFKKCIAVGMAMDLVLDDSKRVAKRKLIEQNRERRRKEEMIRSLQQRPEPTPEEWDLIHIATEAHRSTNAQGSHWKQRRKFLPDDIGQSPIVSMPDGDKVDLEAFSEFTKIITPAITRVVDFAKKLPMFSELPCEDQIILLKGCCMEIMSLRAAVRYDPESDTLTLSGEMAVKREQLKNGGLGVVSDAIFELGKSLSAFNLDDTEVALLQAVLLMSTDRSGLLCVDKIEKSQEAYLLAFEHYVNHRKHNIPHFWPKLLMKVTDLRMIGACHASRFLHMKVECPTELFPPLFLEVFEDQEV
Experimental: (§4) Compounds of the present invention were tested for their effect on O2 consumption (metabolic effect), LDL cholesterol, glucose levels, insulin levels and food consumption (appetite stimulant) and also to assess transcriptional activity of thyroid hormone receptor by in vitro TRE (Thyroid receptor element) reporter assay for TRα1 and TRβ1.
(§5) COS7 cells were transiently transfected with pGAL4 […]/Thyroid α1 or pGAL4/Thyroid β1 and pLuc Pur. The cells were cotransfected with pLacZNorm for normalization of transfection efficiency. Transfected cells were then treated with different concentrations of compounds of present invention, vehicle for 24 hours.
(§6) Cells were the lysed and luciferase activity was monitored in all samples. Results were expressed as fold activation as compared to vehicle control.
(§7) Results: Thyroid(α1/β1) transactivation in COS7 cells.

THR β1 = target: T2, THR β1 (Homo sapiens, UniProt P10828); assay: Thyroid β1 transactivation (TRE reporter, luciferase) in COS7 cells; format: cell-based; conditions: Conc. 20 uM, 24 hours, vs vehicle control
T2 construct: GAL4 (plasmid pGAL4); expressed in transfected cells; host or cells: COS7
T2 sequence (P10828 1-461): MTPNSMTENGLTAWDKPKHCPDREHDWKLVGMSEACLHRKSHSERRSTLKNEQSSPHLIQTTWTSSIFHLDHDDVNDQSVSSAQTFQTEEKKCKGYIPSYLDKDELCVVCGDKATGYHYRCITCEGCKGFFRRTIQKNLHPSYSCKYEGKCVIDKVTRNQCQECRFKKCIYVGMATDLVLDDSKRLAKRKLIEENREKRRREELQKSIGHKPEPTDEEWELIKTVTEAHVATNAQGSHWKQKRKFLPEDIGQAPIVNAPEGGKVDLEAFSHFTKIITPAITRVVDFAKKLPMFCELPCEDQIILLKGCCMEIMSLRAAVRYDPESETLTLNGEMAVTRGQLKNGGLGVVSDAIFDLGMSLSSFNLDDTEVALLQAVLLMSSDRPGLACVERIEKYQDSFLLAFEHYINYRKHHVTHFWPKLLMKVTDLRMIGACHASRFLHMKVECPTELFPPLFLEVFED
Experimental: as §4, §5, §6, §7

Compound | increase in food consumption with reference to vehicle [1] | increase in Heart weight with reference to vehicle [2] | α1 Fold Activation (THR α1) [Fold] | β1 Fold Activation (THR β1) [Fold] | increase in O2 cons [3] | change in vivo at 11 µM, 11 µmol/kg [3] [%]
3-[4-(7-Hydroxy-indan-4-yloxy)-3-thiophen-2-yl-pyrazol-1-yl]-propionic acid And 3-[4-(7-Hydroxy-indan-4-yloxy)-5-thiophen-2-yl-pyrazol-1-yl]-propionic acid [Compound 7] | No change | No change | – | – | ** (** = Increase > 5%) | –
7-[1-(1H-Tetrazol-5-ylmethyl)-3-thiophen-2-yl-1H-pyrazol-4-yloxy]-indan-4-ol And 7-[1-(1H-Tetrazol-5-ylmethyl)-5-thiophen-2-yl-1H-pyrazol-4-yloxy]-indan-4-ol [Compound 8] | No change | No change | 3 | 1 | ** (** = Increase > 5%) | –
Cc1nn(CCC(=O)O)c(C)c1Oc1ccc(O)c2c1CCC2 [Compound 1, 3-[4-(7-Hydroxy-indan-4-yloxy)-3,5-dimethyl-pyrazol-1-yl]-propionic acid] | No change | No change | 1 | 1 | – | < 5
Cc1nn(CCC(=O)O)c(C)c1Cc1ccc2[nH]ccc2c1 [Compound 2, 3-[4-(1H-Indol-5-ylmethyl)-3,5-dimethyl-pyrazol-1-yl]-propionic acid] | No change | No change | 1 | 1 | – | < 5
Cc1nn(Cc2nnn[nH]2)c(C)c1Oc1ccc(O)c2c1CCC2 [Compound 3, 7-[3,5-Dimethyl-1-(1H-tetrazol-5-ylmethyl)-1H-pyrazol-4-yloxy]-indan-4-ol] | No change | No change | 1 | 1 | – | > 5
Cc1nn(CC(=O)Nc2nnn[nH]2)c(C)c1Oc1ccc(O)c2c1CCC2 [Compound 6, 2-[4-(7-Hydroxy-indan-4-yloxy)-3,5-dimethyl-pyrazol-1-yl]-N-(1H-tetrazol-5-yl)-acetamide] | No change | No change | – | – | – | < 5
Cc1cc(Cc2c(C)nn(CCC(=O)O)c2C)c2c(c1O)CCC2 [Compound 9, 3-[4-(7-Hydroxy-6-methyl-indan-4-ylmethyl)-3,5-dimethyl-pyrazol-1-yl]-propionic acid] | No change | No change | 2.5 | 2 | – | > 5

More lines, main results first:

increase in food consumption with reference to vehicle [1] | increase in Heart weight with reference to vehicle [2] | α1 Fold Activation (THR α1) [Fold] | β1 Fold Activation (THR β1) [Fold] | Compound | increase in O2 cons [3] | change in vivo at 11 µM, 11 µmol/kg [3] [%]
No change | No change | – | – | COc1c(C)cc(Cc2c(C)nn(CCC(=O)O)c2C)c2c1CCC2 [Compound 14, 3-[4-(7-Methoxy-6-methyl-indan-4-ylmethyl)-3,5-dimethyl-pyrazol-1-yl]-propionic acid] | – | < 5
No change | No change | – | – | CCc1nn(CC(=O)O)c(CC)c1Cc1cc(C)c(O)c2c1CCC2 [Compound 19, [3,5-Diethyl-4-(7-hydroxy-6-methyl-indan-4-ylmethyl)-pyrazol-1-yl]-acetic acid] | – | > 5
No change | No change | – | – | CCc1nn(CCC(=O)O)c(CC)c1Cc1cc(C)c(O)c2c1CCC2 [Compound 20, 3-[3,5-Diethyl-4-(7-hydroxy-6-methyl-indan-4-ylmethyl)-pyrazol-1-yl]-propionic acid] | – | > 5
